ChEMBL document CHEMBL1156671, “QSAR studies on benzoylaminobenzoic acid derivatives as inhibitors of beta-ketoacyl-acyl carrier protein synthase III” (Eur J Med Chem, 2008)

Assays:
[1] = test system: Escherichia coli; experiment: Antibacterial activity against Escherichia coli; format: functional
[2] = test system: Streptococcus pneumoniae; experiment: Antibacterial activity against Streptococcus pneumoniae; format: functional
[3] = test system: Staphylococcus aureus; experiment: Antibacterial activity against Staphylococcus aureus; format: functional
[4] = test system: Neisseria meningitidis; experiment: Antibacterial activity against Neisseria meningitidis; format: functional
[5] = target: T1, Beta-ketoacyl-[acyl-carrier-protein] synthase III (Enterococcus faecalis (strain ATCC 700802 / V583), UniProt Q820T1); experiment: Inhibition of Enterococcus faecalis FabH by FabD/FabH coupled assay
T1 sequence (Q820T1 whole entry): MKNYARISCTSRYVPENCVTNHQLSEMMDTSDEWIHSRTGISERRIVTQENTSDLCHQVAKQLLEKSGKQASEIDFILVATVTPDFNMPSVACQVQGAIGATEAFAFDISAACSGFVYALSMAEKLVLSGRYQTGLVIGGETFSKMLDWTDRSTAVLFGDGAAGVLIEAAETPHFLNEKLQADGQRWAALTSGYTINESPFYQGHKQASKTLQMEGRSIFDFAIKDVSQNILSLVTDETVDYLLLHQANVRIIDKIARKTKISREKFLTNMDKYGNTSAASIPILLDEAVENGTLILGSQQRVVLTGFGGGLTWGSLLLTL

Structure (SMILES) | -logMIC [1] | -logMIC [2] | -logMIC [3] | -logMIC [4] | IC50 [5] [nM]
O=C(Nc1ccccc1C(=O)O)c1ccc(-c2ccc(F)cc2F)c(Oc2ccccc2)c1 | 6.155 | 5.553 | 5.252 | 6.444 | –
CS(=O)(=O)c1ccc(-c2ccc(C(=O)Nc3ccccc3C(=O)O)cc2Oc2ccccc2)cc1 | 5.252 | 4.347 | 4.347 | 5.252 | –
O=C(NC1=CCSC1C(=O)O)c1cccc(Oc2ccccc2)c1 (stereo not given) | – | – | – | – | 10100
Cc1cc(-c2ccc(C(=O)Nc3ccccc3C(=O)O)cc2Oc2ccccc2)ccc1F | 6.155 | 6.155 | 5.252 | 6.155 | –
O=C(Nc1ccccc1C(=O)O)c1cc(O)c(Br)c(Oc2ccccc2)c1 | 5.553 | 4.347 | 4.347 | 5.553 | 62.1
O=C(Nc1ccccc1C(=O)O)c1cc(O)c(-c2ccccc2)c(Oc2ccccc2)c1 | 5.854 | 4.658 | 4.658 | 5.854 | 4
Cc1cc(-c2ccc(C(=O)Nc3ccccc3C(=O)O)cc2Oc2ccccc2)ccc1Cl | 6.155 | 5.553 | 5.252 | 6.155 | –
O=C(Nc1ccccc1C(=O)O)c1cc(O)cc(Oc2ccccc2)c1 | – | – | – | – | 410
CC(C)c1cccc(-c2ccc(C(=O)Nc3ccccc3C(=O)O)cc2Oc2ccccc2)c1 | 5.553 | 5.854 | 5.252 | 5.854 | –
CC1CC(C)CN(c2ccc(C(=O)Nc3ccccc3C(=O)O)cc2Oc2ccccc2)C1 (stereo not given) | 5.252 | 5.553 | 5.252 | 5.553 | –
O=C(NC1SC=CC1C(=O)O)c1cccc(Oc2ccccc2)c1 (stereo not given) | – | – | – | – | 43000
O=C(Nc1ccccc1C(=O)O)c1ccc(-c2ccc(C(F)(F)F)cc2)c(Oc2ccccc2)c1 | 6.155 | 6.155 | 5.252 | 5.854 | –
O=C(Nc1ccccc1C(=O)O)c1ccc(-c2ccccc2)c(Oc2ccccc2)c1 | 5.854 | 5.854 | 4.947 | 5.854 | –
